The results in this text go back to US20100247538A1, “IL-18 and Protein Kinase R Inhibition for the Treatment of COPD” (Yale University, priority 2007, published 2010).

The test system of experiment [1] is murine lung. The experiment is described as follows: Alveolar remodeling / emphysema (mean chord length, lung morphometry). The following applies: for tissue / alveolar remodeling: control or CS-exposed animals.
The next experiment relates to IL-12/23 p40. Nature of the experiment: BAL IL-12/IL-23p40 ELISA. The following applies: after second dose. It counts as in vivo, mice. The procedure: (§1) CS exposure was continued during this interval.
(§2) The levels of BAL IL-18 (MBL, Japan), IL-12/IL-23p40 and IFN-γ (R&D Systems) were determined using commercial ELISA kits as per the manufacturer's instructions.
A general note: An ELISA detects its analyte on a solid surface through an enzyme-linked reagent.

Experiment [2] concerns IL-18, IL-12/23 p40 and Type I and Type II IFNs. Nature of the experiment: Production of IL-18, IL-12/23 p40 and Type I and Type II IFNs in BAL (stated jointly). It counts as in vivo, mice. The following applies: versus vehicle controls.
Experiment [3] relates to murine lung. The experiment is described as follows: BAL inflammation (BAL cell recovery) after PAMP administration in mice breathing room air or exposed to cigarette smoke. Type of experiment: in vivo. The conditions noted are these: for BAL inflammation: interaction with cigarette smoke (CS-exposed vs non-CS animals): CS exposure 2 weeks before and during dosing; for number of cells recovered per ml of BAL fluid: control (non-CS) animals, dose series. As for the experimental part:
During the first week they received a half cigarette, twice a day, to allow for acclimation. During the remainder of the exposure they received three cigarettes per day (one cigarette per session/three sessions per day).
as §1
Mice were sacrificed using intraperitoneal ketamine/xylazine injection and the trachea was cannulated and perfused with two 0.9 ml aliquots of cold saline. The cellular contents and BAL fluid were separated by centrifugation and the BAL fluid was stored in aliquots at −80° C.

The subject of experiment [4] is murine lung. Nature of the experiment: TUNEL evaluation of lung cell apoptosis. It counts as in vivo, mice. As for the experimental part:
End labeling of exposed 3′-OH ends of DNA fragments in paraffin-embedded tissue was undertaken with the TUNEL in situ cell death detection kit AP (Roche Diagnostics) using the instructions provided by the manufacturer. Staining specificity was assessed by comparing the signal that was seen when terminal transferase was included and excluded from the reaction. After staining, a minimum of 20 fields of alveoli were randomly chosen, and 500 nuclei were counted per lung. The labeled cells were expressed as a percentage of total nuclei.
as §1
End labeling of exposed 3′-OH ends of DNA fragments in paraffin embedded tissue was undertaken with the TUNEL in situ cell death detection kit AP (Roche Diagnostics, Indianapolis, Ind.) using the instructions provided by the manufacturer. Staining specificity was assessed by comparing the signal that was seen when terminal transferase was included and excluded from the reaction. After staining, a minimum of 10 fields of alveoli was randomly chosen and 300 nuclei of structural cells were counted per lung. The labeled cells were expressed as a percentage of total nuclei.

The test system of another experiment is IFN-γ. The experiment is described as follows: BAL IFN-γ ELISA. The following applies: for IFN-γ level: after second dose. Type of experiment: in vivo, mice. As for the experimental part:
as §1, §2

In the next experiment the test system is IL-18. Nature of the experiment: BAL IL-18 ELISA. Type of experiment: in vivo, mice. As for the experimental part:
Mice were euthanized, the trachea was isolated by blunt dissection, and tubing was secured in the airway. Three volumes of 0.6 ml of PBS were then instilled and gently aspirated and pooled. Each BAL fluid sample was centrifuged, and the supernatants were stored in −70° C. until used. Lung lysates were also prepared. The levels of IL-18 were determined using a commercial ELISA kit (R&D Systems) as per the manufacturer's instructions.
as §1, §2

A further experiment deals with PKR. Nature of the experiment: Immunoblot of phospho-PKR in whole lung lysates. Type of experiment: in vivo, mice. As for the experimental part: as §1
Whole lung lysates were prepared and the total protein content of each was measured using the DC protein assay reagents (Bio-Rad Inc.). Equal amounts of sample proteins were fractionated on 4-15% SDS-PAGE gels under reducing conditions and transferred to polyvinylidene difluoride membranes. The membranes were then incubated in blocking buffer (5% w/v nonfat dry milk in TBS/0.05% Tween) for 1 hour at room temperature. The membranes were then incubated with primary antibodies overnight at 4° C., washed three times in TBS/0.05% Tween and incubated for 2 h at room temperature with appropriate secondary antibodies. Immunoreactive signal was detected using a chemiluminescent procedure (ECL Western blotting detection system; Amersham Life Science) according to the manufacturer's instructions.
On the technique in general: Immunoblotting shows a protein as a band on a membrane.

Entries after “also recorded” stand apart in the source; their conditions may differ. Some results are limits rather than exact numbers.

For the molecule poly(I:C), the “morphometrically determined alveolar chord length” value with murine lung [1] (4 doses in CS-exposed mice) is given as “significant increases”. Further, in the experiment with murine lung [1] (4 doses in RA-exposed mice), the “increase in alveolar size” value was “did not achieve statistical significance”. In addition, in the experiment on murine lung [1] (CS-exposed mice), the “dose at which CS interaction on alveolar/airway remodeling could be appreciated” value was ≥ 15 µg. Also, the mean chord length result with murine lung [1] (IL-18Rα−/− and IFN-γ−/− animals exposed to CS) is “about 70 microns”; with murine lung [1] (PKR (null) animals exposed to CS), “about 70 microns”; with murine lung [1] (PKR+/+ animals exposed to CS), “about 85 microns”; in the experiment with murine lung [1] (PKR+/+ animals, no CS), “about 65 microns”; in the experiment on murine lung [1] (PKR−/− animals, no CS), ~62 microns; in the experiment with murine lung [1] (administered and exposed to CS, controls about 55 microns), “about 90 microns”. Moreover, in the experiment on murine lung [1] (wild-type, IL-18Rα−/− and IFN-γ−/− animals, no CS), the mean chord length result is “about 60 microns”. The IL-12/23 level entry in the experiment with IL-12/23 p40 (CS animals, relative to non-CS) is “about twice that”; in the experiment with IL-12/23 p40 (non-CS animals), “about 3000 pg/ml”. The “stimulation of IL-18, IL-12/23 p40 and Type I and Type II IFNs” value in experiment [2] is recorded as “potent stimulator”. In the experiment with murine lung [3], the “BAL inflammation: interaction with cigarette smoke (CS-exposed vs non-CS animals)” value is “significantly exacerbated; also recorded: synergistic”. Besides, the “dose giving significant interaction with CS on inflammation” value with murine lung [3] (CS-exposed mice) was ≥ 15 µg. Further, in the experiment on murine lung [3], the “number of cells recovered per ml of BAL fluid” value was “dose dependent”. For the same molecule, the TUNEL score entry in the experiment with murine lung [4] (IL-18Rα+/+, IFN-γ+/+, PKR+/+ animals, CS) is listed as “about 12%”; with murine lung [4] (IL-18Rα+/+, IFN-γ+/+, PKR+/+ animals, room air), “about 8%”; with murine lung [4] (IL-18Rα−/−, IFN-γ−/− and PKR−/− animals, CS) it was “about 9%”; in the experiment with murine lung [4] (combined with CS) it was “about 17”; in the experiment with murine lung [4] (given alone (no CS)), “about 8”. Moreover, the TUNEL value entry in the experiment on murine lung [4] (IL-18Rα−/−, IFN-γ−/− and PKR−/− animals, room air) is given as “about 6.5%”. For the same molecule, the IFN-γ level result in the experiment on IFN-γ (CS animals) was “about 90 pg/ml”; with IFN-γ (control animals), “about 10 pg/ml”. In addition, the IFN-γ expression entry in the experiment with IFN-γ (IL-18Rα−/− animals, CS) is on record as “about 35 pg/ml”; in the experiment on IFN-γ (wild-type animals, CS), “about 110 pg/ml”; with IFN-γ (wild-type animals, no CS) it was “about 35 pg/ml”. For the same molecule, the IL-18 level entry was “about 100 pg/ml” in the experiment with IL-18 (CS animals, second dose); 90 to 100 pg/mL with IL-18 (both CS and non-CS animals, by week 4); “about 20 pg/ml” in the experiment with IL-18 (non-CS animals, second dose). In addition, in the experiment on PKR (CS-exposed mice), the “dose at which enhanced PKR activation was observed” value was ≥ 15 µg/mL. Further, the phospho-PKR expression entry with PKR (wild-type animals, given alone) is on record as “modestly up-regulated”. In the experiment on PKR (wild-type animals, with CS exposure), the “phospho-PKR expression / PKR activation” value is “further increase; also recorded: greatly enhanced”.
For `CC(C)Cn1cnc2c(N)nc3ccccc3c21` [IMQ, imiquimod], in the experiment with murine lung [1], the “tissue / alveolar remodeling” value is reported as “did not have similar effects”.
In the case of lipopoly-saccharide [LPS], the “tissue / alveolar remodeling” value in the experiment on murine lung [1] is “no tissue remodeling was observed; also recorded: did not have similar effects”. In the experiment on murine lung [3], the “BAL inflammation: interaction with cigarette smoke (CS-exposed vs non-CS animals)” value is reported as “not a significant difference” and the “number of cells recovered per ml of BAL fluid” value was “dose dependent”.
Consider `CCNCc1nc2c(N)nc3ccccc3c2n1CC(C)(C)O` [GDQ, gardiquimod], for which the “tissue / alveolar remodeling” value in the experiment with murine lung [1] is given as “no effect; also recorded: did not have similar effects”. In the experiment on murine lung [3], the “BAL inflammation: interaction with cigarette smoke (CS-exposed vs non-CS animals)” value was “not significantl”. Besides, the BAL inflammation entry with murine lung [3] (control animals, 5 μg doses) is listed as “no effect”.
